Experimental data taken from PMC9421653 (Journal of Medicinal Chemistry, 2022).
In brackets after ≈: the same amount, converted by molar mass.

How the values were obtained:
human GPR84 [1] = molecular target: T1, human GPR84 (Homo sapiens, UniProt Q9NQS5); test: biochemical; assay type: biochemical; conditions: [35S]GTPγS assay; negative log of the IC50 in molar; mean ± SEM; read-out: GTPγS (pIC50) (converted)
T1 construct: expressed in transfected cells; host or cells: Flp-In T-REx 293 cells, doxycycline-induced; membrane preparations

physchem = conditions: pH 7.4, Kinetic Solubility
Excerpt: DPI = 4,5-Diphenylimidazole
(2 pictures or pasted objects on this page, not shown here)

human GPR84 [2] = molecular target: T2, human GPR84 (Homo sapiens, UniProt P04899+Q9NQS5); test: biochemical; assay type: biochemical; conditions: for LLE: LLE = pIC50 – CLog P; for GTPγS (pIC50): [35S]GTPγS assay, negative log of the IC50 in molar, mean ± SEM
T2 construct: expressed in transfected cells; host or cells: Flp-In T-REx 293 cells, doxycycline-induced; membrane preparations

[3] = Mean, PBS pH7.4 in 2% DMSO by LC-MS
[4] = Mean, PBS pH7.4 in 2% DMSO by plate reader
[5] = R=1, PBS pH7.4 in 2% DMSO by LC-MS, replicate 1
[6] = R=1, PBS pH7.4 in 2% DMSO by plate reader, replicate 1
[7] = R=2, PBS pH7.4 in 2% DMSO by LC-MS, replicate 2
[8] = R=2, PBS pH7.4 in 2% DMSO by plate reader, replicate 2

T2 sequence (Q9NQS5+P04899 fused): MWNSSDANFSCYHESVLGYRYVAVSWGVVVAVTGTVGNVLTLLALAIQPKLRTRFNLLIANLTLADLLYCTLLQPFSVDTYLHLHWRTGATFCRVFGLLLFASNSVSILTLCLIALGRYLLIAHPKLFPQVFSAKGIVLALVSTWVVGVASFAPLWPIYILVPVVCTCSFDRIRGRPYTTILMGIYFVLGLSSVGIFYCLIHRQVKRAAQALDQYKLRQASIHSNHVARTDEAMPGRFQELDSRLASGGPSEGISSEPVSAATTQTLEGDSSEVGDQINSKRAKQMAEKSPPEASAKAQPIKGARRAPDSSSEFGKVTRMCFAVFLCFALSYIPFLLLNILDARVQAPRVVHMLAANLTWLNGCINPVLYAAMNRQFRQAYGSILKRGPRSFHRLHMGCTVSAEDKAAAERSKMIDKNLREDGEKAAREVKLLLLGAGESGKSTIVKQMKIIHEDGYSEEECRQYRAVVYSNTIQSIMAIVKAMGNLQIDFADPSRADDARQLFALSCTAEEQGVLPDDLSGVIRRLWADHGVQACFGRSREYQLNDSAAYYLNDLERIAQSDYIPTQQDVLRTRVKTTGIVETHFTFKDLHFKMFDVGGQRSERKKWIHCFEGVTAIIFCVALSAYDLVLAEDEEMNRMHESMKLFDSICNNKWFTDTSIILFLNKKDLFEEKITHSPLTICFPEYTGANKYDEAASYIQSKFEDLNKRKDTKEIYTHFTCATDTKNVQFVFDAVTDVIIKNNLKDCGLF
T1 sequence (Q9NQS5+P04899 fused): as above

Row | Compound | IC50 (human GPR84 [1]) [nM] | GTPγS (pIC50) (human GPR84 [2]) | further results
1 | O=C(c1ccc(-c2nc(Cc3c[nH]c4ccccc34)nnc2-c2ccccc2)cc1)N1CCOCC1 [Compound 83, (4-(3-((1H-Indol-3-yl)methyl)-6-phenyl-1,2,4-triazin-5-yl)phenyl)(morpholino)methanone] | 209 | – | –
2 | CN1CCN(C(=O)c2ccc(-c3nc(Cc4c[nH]c5ccccc45)nnc3-c3ccccc3)cc2)CC1 [Compound 86, (4-(3-((1H-Indol-3-yl)methyl)-6-phenyl-1,2,4-triazin-5-yl)phenyl)(4-methylpiperazin-1-yl)methanone] | 955 | – | –
3 | COCCNC(=O)c1ccc(-c2nc(Cc3c[nH]c4ccccc34)nnc2-c2ccccc2)cc1 [Compound 87, 4-(3-((1H-Indol-3-yl)methyl)-6-phenyl-1,2,4-triazin-5-yl)-N-(2-methoxyethyl)benzamide] | 72.4 | – | –
4 | CC(=O)N1CCN(c2ccc(OCC3COC(Cn4ccnc4)(c4ccc(Cl)cc4Cl)O3)cc2)CC1 (stereo not drawn) [Ketoconazole, reference compound] | – | – | solubility kinetic (physchem; [3]): 103 µM (≈ 54.7 µg/mL); solubility kinetic (physchem; [4]): 129 µM (≈ 68.6 µg/mL); solubility kinetic (physchem; [5]): 101 µM (≈ 53.7 µg/mL); solubility kinetic (physchem; [6]): 128 µM (≈ 68 µg/mL); solubility kinetic (physchem; [7]): 105 µM (≈ 55.8 µg/mL); solubility kinetic (physchem; [8]): 129 µM (≈ 68.6 µg/mL)
5 | O=C(NCCO)c1ccc(-c2nc(Cc3c[nH]c4ccccc34)nnc2-c2ccccc2)cc1 [Compound 85, 4-(3-((1H-Indol-3-yl)methyl)-6-phenyl-1,2,4-triazin-5-yl)-N-(2-hydroxyethyl)benzamide] | 28.8 | – | –
6 | Cc1nc(Cc2c[nH]c3ccccc23)nnc1-c1ccccc1 [Compound 29, 3-[(5-Methyl-6-phenyl-1,2,4-triazin-3-yl)methyl]-1H-indole] | 5620 | – | LLE (human GPR84 [2]): 1.99
7 | CN(C)CCNC(=O)c1ccc(-c2nc(Cc3c[nH]c4ccccc34)nnc2-c2ccccc2)cc1 [Compound 84, 4-(3-((1H-Indol-3-yl)methyl)-6-phenyl-1,2,4-triazin-5-yl)-N-(2-(dimethylamino)ethyl)benzamide] | 1000 | – | –
8 | CN(C)Cc1ccc(-c2nnc(Cc3c[nH]c4ccccc34)nc2-c2ccccc2)cc1 [Compound 44, 1-(4-(3-((1H-Indol-3-yl)methyl)-5-phenyl-1,2,4-triazin-6-yl)phenyl)-N,N-dimethylmethanamine] | – | 6.68 ± 0.05 | –
9 | c1ccc(-c2nc[nH]c2-c2ccccc2)cc1 [DPI, 4,5-Diphenylimidazole, reference compound] | – | – | solubility kinetic (physchem; [3]): 27 µM (≈ 5.95 µg/mL); solubility kinetic (physchem; [4]): 30 µM (≈ 6.61 µg/mL); solubility kinetic (physchem; [5]): 25 µM (≈ 5.51 µg/mL); solubility kinetic (physchem; [6]): 28 µM (≈ 6.17 µg/mL); solubility kinetic (physchem; [7]): 28 µM (≈ 6.17 µg/mL); solubility kinetic (physchem; [8]): 32 µM (≈ 7.05 µg/mL)
10 | NC(=O)CNC(=O)c1ccc(-c2nc(Cc3c[nH]c4ccccc34)nnc2-c2ccccc2)cc1 [Compound 90, 4-(3-((1H-Indol-3-yl)methyl)-6-phenyl-1,2,4-triazin-5-yl)-N-(2-amino-2-oxoethyl)benzamide] | 380 | – | –
11 | CNS(=O)(=O)c1ccc(-c2nc(Cc3c[nH]c4ccccc34)nnc2-c2ccccc2)cc1 [Compound 33, 4-(3-((1H-Indol-3-yl)methyl)-6-phenyl-1,2,4-triazin-5-yl)-N-methylbenzenesulfonamide] | – | 6.49 ± 0.05 | –
12 | O=C(c1ccc(-c2nnc(Cc3c[nH]c4ccccc34)nc2-c2ccccc2)cc1)N1CCOCC1 [Compound 74, (4-(3-((1H-Indol-3-yl)methyl)-5-phenyl-1,2,4-triazin-6-yl)phenyl)(morpholino)methanone] | – | 7.19 ± 0.07 | –
13 | O=C(NCCO)c1ccc(-c2nnc(Cc3c[nH]c4cnccc34)nc2-c2ccccc2)cc1 [Compound 70, 4-(3-((1H-Pyrrolo[2,3-c]pyridin-3-yl)methyl)-5-phenyl-1,2,4-triazin-6-yl)-N-(2-hydroxyethyl)benzamide] | – | 7.04 ± 0.07 | –
14 | CN(C)CCNC(=O)c1ccc(-c2nnc(Cc3c[nH]c4ccccc34)nc2-c2ccccc2)cc1 [Compound 75, 4-(3-((1H-Indol-3-yl)methyl)-5-phenyl-1,2,4-triazin-6-yl)-N-(2-(dimethylamino)ethyl)benzamide] | – | 5.54 ± 0.10 | –
15 | Cc1cc(Cc2nnc(-c3ccccc3)c(-c3ccccc3)n2)n[nH]1 [Compound 23, 3-((5-Methyl-1H-pyrazol-3-yl)methyl)-5,6-diphenyl-1,2,4-triazine] | – | 4.97 ± 0.23 | –
16 | FC(F)(F)Oc1ccccc1-c1cnnc(Cc2c[nH]c3ccccc23)n1 [Compound 26, 3-((5-(2-(Trifluoromethoxy)phenyl)-1,2,4-triazin-3-yl)methyl)-1H-indole] | – | <4.70 | –
17 | COC(=O)c1ccc(-c2nnc(Cc3c[nH]c4cnccc34)nc2-c2ccccc2)cc1 [Compound 66, Methyl 4-(3-((1H-Pyrrolo[2,3-c]pyridin-3-yl)methyl)-5-phenyl-1,2,4-triazin-6-yl)benzoate] | – | 7.02 ± 0.06 | –
18 | CN1CCN(C(=O)c2ccc(-c3nc(Cc4c[nH]c5ccccc45)nnc3-c3ccccc3)cc2)CC1=O [Compound 89, 4-(4-(3-((1H-Indol-3-yl)methyl)-6-phenyl-1,2,4-triazin-5-yl)benzoyl)-1-methylpiperazin-2-one] | 490 | – | –
19 | CN(C)Cc1ccc(-c2nc(Cc3c[nH]c4ccccc34)nnc2-c2ccccc2)cc1 [Compound 43, 1-(4-(3-((1H-Indol-3-yl)methyl)-6-phenyl-1,2,4-triazin-5-yl)phenyl)-N,N-dimethylmethanamine] | – | 6.20 ± 0.05 | –
20 | O=C(NCCO)c1ccc(-c2nc(Cc3c[nH]c4cnccc34)nnc2-c2ccccc2)cc1 [Compound 69, 4-(3-((1H-Pyrrolo[2,3-c]pyridin-3-yl)methyl)-6-phenyl-1,2,4-triazin-5-yl)-N-(2-hydroxyethyl)benzamide] | – | 6.84 ±0.05 | –
21 | CC(=O)NCCNC(=O)c1ccc(-c2nc(Cc3c[nH]c4ccccc34)nnc2-c2ccccc2)cc1 [Compound 88, 4-(3-((1H-Indol-3-yl)methyl)-6-phenyl-1,2,4-triazin-5-yl)-N-(2-acetamidoethyl)benzamide] | 209 | – | –
22 | Cc1nnc(Cc2c[nH]c3ccccc23)nc1-c1ccccc1 [Compound 28, 3-[(6-Methyl-5-phenyl-1,2,4-triazin-3-yl)methyl]-1H-indole] | 10200 | – | LLE (human GPR84 [2]): 1.73
23 | CNC(=O)c1ccc(-c2nc(Cc3c[nH]c4cnccc34)nnc2-c2ccccc2)cc1 [Compound 67, 4-(3-((1H-Pyrrolo[2,3-c]pyridin-3-yl)methyl)-6-phenyl-1,2,4-triazin-5-yl)-N-methylbenzamide] | – | 6.48 ± 0.04 | –
24 | CS(=O)(=O)c1ccc(-c2nnc(Cc3c[nH]c4ccccc34)nc2-c2ccccc2)cc1 [Compound 36, 3-((6-(4-(Methylsulfonyl)phenyl)-5-phenyl-1,2,4-triazin-3-yl)methyl)-1H-indole] | – | 6.18 ± 0.04 | –
25 | O=C(O)c1ccc(-c2nnc(Cc3c[nH]c4ccccc34)nc2-c2ccccc2)cc1 [Compound 52, 4-(3-((1H-Indol-3-yl)methyl)-5-phenyl-1,2,4-triazin-6-yl)benzoic Acid] | – | 7.06 ± 0.22 | –
26 | OCc1ccc(-c2nc(Cc3c[nH]c4ccccc34)nnc2-c2ccccc2)cc1 [Compound 39, (4-(3-((1H-Indol-3-yl)methyl)-6-phenyl-1,2,4-triazin-5-yl)phenyl)methanol] | – | 7.16 ± 0.04 | –
27 | OCc1ccc(-c2nnc(Cc3c[nH]c4ccccc34)nc2-c2ccccc2)cc1 [Compound 40, (4-(3-((1H-Indol-3-yl)methyl)-5-phenyl-1,2,4-triazin-6-yl)phenyl)methanol] | – | 7.76 ± 0.06 | –
28 | CNC(=O)c1ccc(-c2nc(Cc3c[nH]c4ccncc34)nnc2-c2ccccc2)cc1 [Compound 71, 4-(3-((1H-Pyrrolo[3,2-c]pyridin-3-yl)methyl)-6-phenyl-1,2,4-triazin-5-yl)-N-methylbenzamide] | – | 5.64 ± 0.05 | –
29 | CNC(=O)c1ccc(-c2nnc(Cc3c[nH]c4ccccc34)nc2-c2ccccc2)cc1 [Compound 73, 4-(3-((1H-Indol-3-yl)methyl)-5-phenyl-1,2,4-triazin-6-yl)-N-methylbenzamide] | – | 7.18 ± 0.09 | –
30 | c1ccc(-c2nc(Cc3c[nH]c4cnccc34)nnc2-c2cnccn2)cc1 [Compound 60, 3-((5-Phenyl-6-(pyrazin-2-yl)-1,2,4-triazin-3-yl)methyl)-1H-pyrrolo[2,3-c]pyridine] | – | 5.91± 0.06 | –
